Source: patent US10479807B2, “Silylated pyrimidine prodrugs and methods of their use” (priority 2014, dated 2019)
Where two headings read alike, the source gives them in different places.

Assays:
L1210 = experiment: In vitro cytotoxicity, leukemia; type: cell-based; settings: Mus musculus
mice = experiment: Toxicity of formulated Compound XI in mice; type: in vivo; settings: nanoemulsion, intravenously on three consecutive days, doses up to 60 mg/kg, observed at the end of one week
Description: Compound XI was successfully formulated in a nanoemulsion at a concentration of 3 mg/ml. The nanoemulsion has an oil phase consisting of an injectable oil and lecithin and an aqueous phase comprising a tonicity adjuster, a stabilizer and water. The emulsions are of oil-in-water type with the mean oil droplets less than 100 nm. Each vehicle is at neutral pH (5-7) and about isotonic. The toxicity of formulated Compound XI was tested in mice. Mice were injected intravenously on three consecutive days with Compound XI at doses of up to 60 mg/kg and observed at the end of one week.

[1] = Release of 5-azacytidine from prodrug by hydrolysis in PBS; type: physicochemical; settings: PBS at room temperature (20° C.)
HCT-116 = experiment: In vitro cytotoxicity, colon; type: cell-based; settings: Homo sapiens, HCT-116, read-out: In vitro cytotoxicity IC50, Colon HCT-116
MDA-MB-231 = experiment: In vitro cytotoxicity, breast; type: cell-based; settings: Homo sapiens, MDA-MB-231, read-out: In vitro cytotoxicity IC50, Breast MDA-MB-231
[2] = trifluridine alone; cited from earlier work

With Nc1ncn([C@@H]2O[C@H](CO)[C@@H](O)[C@H]2O)c(=O)n1 [5-azacyctidine, 5-azacytidine, reference compound] as the compound, how does the IC50 (L1210; L1210 leukemia, read-out: In vitro cytotoxicity IC50, Leukemia L1210) read?
The IC50 was 1700 to 2400 nM.

For C[Si](C)(C)OC[C@H]1O[C@@H](n2cnc(N)nc2=O)C(F)(F)C1O[Si](C)(C)C (stereo partly shown) [Compound XI, 2′,2′-Difluoro-5-azadeoxycytidine-trimethylsilyl], which “Toxicity as measured by weight loss” value (mice) is on record?
The value was “No evidence of toxicity”.

Which “Active drug (5-azacytidine) recovered by hydrolysis” value [1] does the source give for C[Si](C)(C)OC[C@H]1O[C@@H](n2cnc(N)nc2=O)[C@@H](O[Si](C)(C)C)C1O[Si](C)(C)C (stereo partly shown) [NUC025, 2′,3′,5′-Tri(trimethylsilyl)-5-azacytidine] here?
Its value is “approximately 80%”.

What about the IC50 (HCT-116) of the same compound?
The IC50 was 1080 nM.

And the IC50 (L1210; L1210, read-out: In vitro cytotoxicity IC50, Leukemia L1210)?
The IC50 was 1180 nM.

What about the IC50 (MDA-MB-231) of the same compound?
Its IC50 is 3280 nM.

Which half-life [2] does the source give for O=c1[nH]c(=O)n([C@H]2C[C@H](O)[C@@H](CO)O2)cc1C(F)(F)F [Trifluridine, 5-trifluorothymidine] here?
The half-life was 12 min.
